According to ChEMBL document CHEMBL1131646, “Synthesis of some hydroxynaphthazarins and their cardioprotective effects under ischemia-reperfusion in vivo” (Bioorg Med Chem Lett, 1998):

Key:
[1] = Lethal dose to produce acute toxicity was evaluated in white crossbred mice weighing 20-25 g; conditions: mouse, in vivo
Oryctolagus cuniculus = species on record: Oryctolagus cuniculus; test: Myocardial infarction (MI) size was calculated as a percentage of the infarct area to the total area of the left ventricle of male chinchilla rabbits; assay type: functional, Heart left ventricle; set-up: concentration or dose not given beside the values

## Cc1c(O)c(O)c2c(c1O)C(=O)C(SC[C@H](NC(=O)CC[C@H](N)C(=O)O)C(=O)NCC(=O)O)=C(SC[C@H](NC(=O)CC[C@H](N)C(=O)O)C(=O)NCC(=O)O)C2=O
[1]
  LD50: 1350 mg/kg
Oryctolagus cuniculus
  Activity: 7.15%

## CC(C)(C)C1=CC(=O)c2c(O)c(O)c(O)c(O)c2C1=O
[1]
  LD50: 170 mg/kg
Oryctolagus cuniculus
  Activity: 10.18%

## CCCC1=C(O)C(=O)c2c(O)c(O)c(O)c(O)c2C1=O
[1]
  LD50: 80 mg/kg
Oryctolagus cuniculus
  Activity: 10.08%

## Cc1c(O)c(O)c2c(c1O)C(=O)C(SCCO)=C(SCCO)C2=O
[1]
  LD50: 150 mg/kg
Oryctolagus cuniculus
  Activity: 9.97%

## O=C(O)CCC1=C(O)C(=O)c2c(O)c(O)c(O)c(O)c2C1=O
[1]
  LD50: 95 mg/kg
Oryctolagus cuniculus
  Activity: 7.9%

## CCc1c(O)c(O)c2c(c1O)C(=O)C(SC[C@H](NC(=O)CC[C@H](N)C(=O)O)C(=O)NCC(=O)O)=C(SC[C@H](NC(=O)CC[C@H](N)C(=O)O)C(=O)NCC(=O)O)C2=O
[1]
  LD50: 1480 mg/kg
Oryctolagus cuniculus
  Activity: 8.35%

## N[C@@H](CCC(=O)N[C@@H](CSC1=C(SC[C@H](NC(=O)CC[C@H](N)C(=O)O)C(=O)NCC(=O)O)C(=O)c2c(O)c(O)c(O)c(O)c2C1=O)C(=O)NCC(=O)O)C(=O)O
[1]
  LD50: 1210 mg/kg
Oryctolagus cuniculus
  Activity: 12.37%

## CCC1=C(O)C(=O)c2c(O)c(O)c(O)c(O)c2C1=O [ECHINOCHROME A]
[1]
  LD50: 87 mg/kg
Oryctolagus cuniculus
  Activity: 7.76%

## O=[N+]([O-])OCC(CO[N+](=O)[O-])O[N+](=O)[O-] [NITROGLYCERIN]
Oryctolagus cuniculus
  Activity: 15.23%

## COc1ccc(CCN(C)CCCC(C#N)(c2ccc(OC)c(OC)c2)C(C)C)cc1OC (stereo not drawn) [VERAPAMIL]
Oryctolagus cuniculus
  Activity: 6.51%
